Experimental data taken from patent US10597388B2, “Pyridazinone herbicides” (FMC CORPORATION, priority 2014, dated 2020).

Experiments:
Experiment in all cases: Test C greenhouse herbicide test, pre- and postemergence
Type in all cases: in vivo
[1] = test system: lambsquarters (Chenopodium album)
Summary of the method: (§1)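 Each species was treated both before emergence, in a loam–sand soil mix, and after emergence, as 1- to 4-leaf seedlings in peat-based potting medium. Plants stayed in the greenhouse 13 to 15 d, then were scored from 0 (no effect) to 100 (complete control) relative to controls.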

[2] = test system: ragweed (common ragweed, Ambrosia elatior)
Summary of the method: as §1

[3] = test system: barnyardgrass (Echinochloa crus-galli)
Summary of the method: as §1

[4] = test system: morningglory (Ipomoea coccinea)
Summary of the method: as §1

[5] = test system: waterhemp (common waterhemp, Amaranthus rudis)
Summary of the method: as §1

[6] = test system: crabgrass, large (large crabgrass, Digitaria sanguinalis)
Summary of the method: as §1

[7] = test system: johnsongrass (Sorghum halepense)
Summary of the method: as §1

[8] = test system: ryegrass, Italian (Italian ryegrass, Lolium multiflorum)
Summary of the method: as §1

[9] = test system: nutsedge, yellow (yellow nutsedge, Cyperus esculentus)
Summary of the method: as §1

[10] = test system: blackgrass (Alopecurus myosuroides)
Summary of the method: as §1

[11] = test system: pigweed (Amaranthus retroflexus)
Summary of the method: as §1

[12] = test system: soybean (Glycine max)
Summary of the method: as §1

[13] = test system: corn (Zea mays)
Summary of the method: as §1

[14] = test system: velvetleaf (Abutilon theophrasti)
Summary of the method: as §1

[15] = test system: wheat (winter wheat, Triticum aestivum)
Summary of the method: as §1

[16] = Postemergence, 31 g ai/ha, 0 to 100 scale (0 no effect, 100 complete control)
[17] = Postemergence, 125 g ai/ha, scale 0 to 100, 0 is no effect, 100 is complete control
[18] = Postemergence, 250 g ai/ha, scale 0 to 100, 0 no effect, 100 complete control, 13 to 15 d
[19] = Preemergence, 31 g ai/ha, scale 0 to 100, 0 is no effect, 100 is complete control
[20] = Preemergence, 62 g ai/ha, scale 0 to 100, 0 is no effect, 100 is complete control
[21] = Preemergence, 125 g ai/ha, scale 0 to 100, 0 is no effect, 100 is complete control
[22] = Preemergence, 250 g ai/ha, scale 0 to 100, 0 no effect, 100 complete control
[23] = postemergence, 62 g ai/ha, scale 0 to 100, 0 no effect, 100 complete control
[24] = Postemergence, 31 g ai/ha, scale 0 to 100 (0 no effect, 100 complete control)
[25] = Postemergence, 62 g ai/ha, 0 to 100 scale (0 no effect, 100 complete control)

## CCc1ccc2ccccc2c1-c1c(O)c(C)nn(C)c1=O [Compound 32]
[1]; [16]
  Lambsquarters plant response rating: 85
[1]; [17]
  Plant response rating, Lambsquarters: 98
[1]; [18]
  Plant response rating, Lambsquarters: 100
[1]; [19]
  Plant response rating, Lambsquarters: 80
[1]; [20]
  Plant response rating, Lambsquarters: 70
[1]; [21]
  Plant response rating, Lambsquarters: 85
[1]; [22]
  Lambsquarters plant response rating: 90
[1]; [23]
  Lambsquarters plant response rating: 90
[2]; [16]
  Ragweed plant response rating: 85
[2]; [17]
  Plant response rating, Ragweed: 98
[2]; [18]
  Plant response rating, Ragweed: 98
[2]; [19]
  Plant response rating, Ragweed: 85
[2]; [20]
  Plant response rating, Ragweed: 90
[2]; [21]
  Plant response rating, Ragweed: 95
[2]; [22]
  Ragweed plant response rating: 98
[2]; [23]
  Ragweed plant response rating: 90
[3]; [16]
  Barnyardgrass plant response rating: 10
[3]; [17]
  Plant response rating, Barnyardgrass: 65
[3]; [18]
  Plant response rating, Barnyardgrass: 90
[3]; [19]
  Plant response rating, Barnyardgrass: 20
[3]; [20]
  Plant response rating, Barnyardgrass: 65
[3]; [21]
  Plant response rating, Barnyardgrass: 85
[3]; [22]
  Barnyardgrass plant response rating: 100
[3]; [23]
  Barnyardgrass plant response rating: 30
[4]; [16]
  Morningglory plant response rating: 90
[4]; [17]
  Plant response rating, Morningglory: 100
[4]; [18]
  Plant response rating, Morningglory: 100
[4]; [19]
  Plant response rating, Morningglory: 80
[4]; [20]
  Plant response rating, Morningglory: 90
[4]; [21]
  Plant response rating, Morningglory: 98
[4]; [22]
  Morningglory plant response rating: 98
[4]; [23]
  Morningglory plant response rating: 100
[5]; [16]
  Waterhemp plant response rating: 70
[5]; [17]
  Plant response rating, Waterhemp: 85
[5]; [18]
  Plant response rating, Waterhemp: 98
[5]; [20]
  Plant response rating, Waterhemp: 100
[5]; [21]
  Plant response rating, Waterhemp: 100
[5]; [22]
  Waterhemp plant response rating: 100
[5]; [23]
  Waterhemp plant response rating: 80
[6]; [16]
  Crabgrass, Large plant response rating: 10
[6]; [17]
  Plant response rating, Crabgrass, Large: 75
[6]; [18]
  Plant response rating, Crabgrass, Large: 70
[6]; [19]
  Plant response rating, Crabgrass, Large: 0
[6]; [20]
  Plant response rating, Crabgrass, Large: 35
[6]; [21]
  Plant response rating, Crabgrass, Large: 70
[6]; [22]
  Crabgrass, Large plant response rating: 100
[6]; [23]
  Crabgrass, Large plant response rating: 30
[7]; [16]
  Johnsongrass plant response rating: 5
[7]; [17]
  Plant response rating, Johnsongrass: 15
[7]; [18]
  Plant response rating, Johnsongrass: 35
[7]; [19]
  Plant response rating, Johnsongrass: 0
[7]; [20]
  Plant response rating, Johnsongrass: 0
[7]; [21]
  Plant response rating, Johnsongrass: 10
[7]; [22]
  Johnsongrass plant response rating: 45
[7]; [23]
  Johnsongrass plant response rating: 25
[8]; [16]
  Ryegrass, Italian plant response rating: 85
[8]; [17]
  Plant response rating, Ryegrass, Italian: 90
[8]; [18]
  Plant response rating, Ryegrass, Italian: 95
[8]; [19]
  Plant response rating, Ryegrass, Italian: 85
[8]; [20]
  Plant response rating, Ryegrass, Italian: 90
[8]; [21]
  Plant response rating, Ryegrass, Italian: 95
[8]; [22]
  Ryegrass, Italian plant response rating: 95
[8]; [23]
  Ryegrass, Italian plant response rating: 90
[9]; [16]
  Nutsedge, Yellow plant response rating: 55
[9]; [17]
  Plant response rating, Nutsedge, Yellow: 80
[9]; [18]
  Plant response rating, Nutsedge, Yellow: 85
[9]; [19]
  Plant response rating, Nutsedge, Yellow: 25
[9]; [20]
  Plant response rating, Nutsedge, Yellow: 45
[9]; [21]
  Plant response rating, Nutsedge, Yellow: 45
[9]; [22]
  Nutsedge, Yellow plant response rating: 60
[9]; [23]
  Nutsedge, Yellow plant response rating: 80
[10]; [16]
  Blackgrass plant response rating: 30
[10]; [17]
  Plant response rating, Blackgrass: 80
[10]; [18]
  Plant response rating, Blackgrass: 80
[10]; [19]
  Plant response rating, Blackgrass: 70
[10]; [20]
  Plant response rating, Blackgrass: 90
[10]; [21]
  Plant response rating, Blackgrass: 90
[10]; [22]
  Blackgrass plant response rating: 90
[10]; [23]
  Blackgrass plant response rating: 60
[11]; [16]
  Pigweed plant response rating: 75
[11]; [17]
  Plant response rating, Pigweed: 90
[11]; [18]
  Plant response rating, Pigweed: 95
[11]; [19]
  Plant response rating, Pigweed: 100
[11]; [20]
  Plant response rating, Pigweed: 100
[11]; [21]
  Plant response rating, Pigweed: 100
[11]; [22]
  Pigweed plant response rating: 100
[11]; [23]
  Pigweed plant response rating: 90
[12]; [16]
  Soybean plant response rating: 15
[12]; [17]
  Plant response rating, Soybean: 30
[12]; [18]
  Plant response rating, Soybean: 35
[12]; [20]
  Plant response rating, Soybean: 10
[12]; [21]
  Plant response rating, Soybean: 40
[12]; [22]
  Soybean plant response rating: 55
[12]; [23]
  Soybean plant response rating: 25
[13]; [16]
  Corn plant response rating: 0
[13]; [17]
  Plant response rating, Corn: 30
[13]; [18]
  Plant response rating, Corn: 40
[13]; [19]
  Plant response rating, Corn: 0
[13]; [20]
  Plant response rating, Corn: 0
[13]; [21]
  Plant response rating, Corn: 0
[13]; [22]
  Corn plant response rating: 35
[13]; [23]
  Corn plant response rating: 20
[14]; [16]
  Velvetleaf plant response rating: 10
[14]; [17]
  Plant response rating, Velvetleaf: 85
[14]; [18]
  Plant response rating, Velvetleaf: 85
[14]; [20]
  Plant response rating, Velvetleaf: 85
[14]; [21]
  Plant response rating, Velvetleaf: 85
[14]; [22]
  Velvetleaf plant response rating: 90
[14]; [23]
  Velvetleaf plant response rating: 70
[15]; [16]
  Wheat plant response rating: 5
[15]; [17]
  Plant response rating, Wheat: 25
[15]; [18]
  Plant response rating, Wheat: 40
[15]; [20]
  Plant response rating, Wheat: 45
[15]; [21]
  Plant response rating, Wheat: 50
[15]; [22]
  Wheat plant response rating: 70
[15]; [23]
  Wheat plant response rating: 15

## Cc1nn(C)c(=O)c(-c2cccc3ccc(Br)cc23)c1O [Compound 126]
[1]; [24]
  Plant response rating, Lambsquarters: 80
[1]; [25]
  Lambsquarters plant response rating: 95
[1]; [17]
  Plant response rating, Lambsquarters: 95
[1]; [18]
  Plant response rating, Lambsquarters: 95
[2]; [24]
  Plant response rating, Ragweed: 85
[2]; [25]
  Ragweed plant response rating: 90
[2]; [17]
  Plant response rating, Ragweed: 95
[2]; [18]
  Plant response rating, Ragweed: 95
[3]; [24]
  Plant response rating, Barnyardgrass: 25
[3]; [25]
  Barnyardgrass plant response rating: 30
[3]; [17]
  Plant response rating, Barnyardgrass: 35
[3]; [18]
  Plant response rating, Barnyardgrass: 50
[4]; [24]
  Plant response rating, Morningglory: 95
[4]; [25]
  Morningglory plant response rating: 95
[4]; [17]
  Plant response rating, Morningglory: 98
[4]; [18]
  Plant response rating, Morningglory: 98
[5]; [24]
  Plant response rating, Waterhemp: 75
[5]; [25]
  Waterhemp plant response rating: 90
[5]; [17]
  Plant response rating, Waterhemp: 95
[5]; [18]
  Plant response rating, Waterhemp: 100
[6]; [24]
  Plant response rating, Crabgrass, Large: 10
[6]; [25]
  Crabgrass, Large plant response rating: 20
[6]; [17]
  Plant response rating, Crabgrass, Large: 30
[6]; [18]
  Plant response rating, Crabgrass, Large: 30
[7]; [24]
  Plant response rating, Johnsongrass: 10
[7]; [25]
  Johnsongrass plant response rating: 10
[7]; [17]
  Plant response rating, Johnsongrass: 15
[7]; [18]
  Plant response rating, Johnsongrass: 25
[8]; [24]
  Plant response rating, Ryegrass, Italian: 80
[8]; [25]
  Ryegrass, Italian plant response rating: 85
[8]; [17]
  Plant response rating, Ryegrass, Italian: 90
[8]; [18]
  Plant response rating, Ryegrass, Italian: 90
[9]; [24]
  Plant response rating, Nutsedge, Yellow: 35
[9]; [25]
  Nutsedge, Yellow plant response rating: 60
[9]; [17]
  Plant response rating, Nutsedge, Yellow: 70
[9]; [18]
  Plant response rating, Nutsedge, Yellow: 85
[10]; [24]
  Plant response rating, Blackgrass: 5
[10]; [25]
  Blackgrass plant response rating: 5
[10]; [17]
  Plant response rating, Blackgrass: 10
[10]; [18]
  Plant response rating, Blackgrass: 40
[11]; [24]
  Plant response rating, Pigweed: 85
[11]; [25]
  Pigweed plant response rating: 90
[11]; [17]
  Plant response rating, Pigweed: 95
[11]; [18]
  Plant response rating, Pigweed: 95
[12]; [24]
  Plant response rating, Soybean: 5
[12]; [25]
  Soybean plant response rating: 10
[12]; [17]
  Plant response rating, Soybean: 20
[12]; [18]
  Plant response rating, Soybean: 35
[13]; [24]
  Plant response rating, Corn: 10
[13]; [25]
  Corn plant response rating: 10
[13]; [17]
  Plant response rating, Corn: 20
[13]; [18]
  Plant response rating, Corn: 25
[14]; [24]
  Plant response rating, Velvetleaf: 30
[14]; [25]
  Velvetleaf plant response rating: 85
[14]; [17]
  Plant response rating, Velvetleaf: 98
[14]; [18]
  Plant response rating, Velvetleaf: 95
[15]; [24]
  Plant response rating, Wheat: 0
[15]; [25]
  Wheat plant response rating: 0
[15]; [17]
  Plant response rating, Wheat: 0
[15]; [18]
  Plant response rating, Wheat: 5
